Assay results published in ChEMBL document CHEMBL1759969 (Bioorg Med Chem Lett, 2011).

Key:
[1] = target: T1, Melatonin receptor type 1B (Homo sapiens, UniProt P49286); experiment: Agonist activity at human MT2 receptor expressed in CHO cells by [35S]GTPgamma binding assay; type: functional, cell-based
T1 sequence (P49286 whole entry): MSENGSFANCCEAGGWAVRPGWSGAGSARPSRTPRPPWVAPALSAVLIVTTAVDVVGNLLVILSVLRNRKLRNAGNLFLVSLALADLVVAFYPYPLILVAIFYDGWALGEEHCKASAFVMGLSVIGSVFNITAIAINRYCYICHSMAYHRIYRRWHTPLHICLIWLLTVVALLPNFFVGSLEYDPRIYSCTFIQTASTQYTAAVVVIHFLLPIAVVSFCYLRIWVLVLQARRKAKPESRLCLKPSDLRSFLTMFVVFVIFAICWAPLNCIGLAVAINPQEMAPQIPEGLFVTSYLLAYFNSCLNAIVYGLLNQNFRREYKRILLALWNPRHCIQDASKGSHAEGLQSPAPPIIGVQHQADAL

[2] = target: T1, Melatonin receptor type 1B; experiment: Displacement of 2-[125I]-iodomelatonin from human MT2 receptor expressed in HEK293 cells; type: cell-based
[3] = target: T2, Melatonin receptor type 1A (Homo sapiens, UniProt P48039); experiment: Displacement of 2-[125I]-iodomelatonin from human MT1 receptor expressed in HEK293 cells; type: cell-based
Homo sapiens = species on record: Homo sapiens; experiment: Selectivity ratio of Ki for human MT1 receptor to Ki for human MT2 receptor
[4] = target: T2, Melatonin receptor type 1A; experiment: Agonist activity at human MT1 receptor expressed in CHO cells by [35S]GTPgamma binding assay; type: functional, cell-based

T2 sequence (P48039 whole entry): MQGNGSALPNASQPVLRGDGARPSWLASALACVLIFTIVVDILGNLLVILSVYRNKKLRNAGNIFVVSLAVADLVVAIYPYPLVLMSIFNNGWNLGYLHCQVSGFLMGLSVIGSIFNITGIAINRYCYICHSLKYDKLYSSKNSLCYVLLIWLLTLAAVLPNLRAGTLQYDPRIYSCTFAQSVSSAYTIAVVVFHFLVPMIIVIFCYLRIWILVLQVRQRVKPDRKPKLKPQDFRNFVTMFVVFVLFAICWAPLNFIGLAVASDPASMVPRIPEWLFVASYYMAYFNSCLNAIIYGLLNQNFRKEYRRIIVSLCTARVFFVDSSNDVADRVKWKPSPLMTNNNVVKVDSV

| SMILES | EC50 [1] [nM] | Ki [2] [nM] | Ki [3] [nM] | Ratio Ki (Homo sapiens) | EC50 [4] [nM] |
| --- | --- | --- | --- | --- | --- |
| COc1ccc2ccn(CCNC(C)=O)c2n1 | 2.1 | 0.6 | 1.4 | 2.3 | 4 |
| COc1ccc2c(CN(C)C)cn(CCNC(C)=O)c2n1 | – | > 10000 | > 10000 | – | – |
| CCCC(=O)NCCn1ccc2ccc(OC)nc21 | 0.7 | 0.3 | – | – | – |
| CCC(=O)NCCn1ccc2ccc(OC)nc21 | 1.4 | 0.28 | 3.3 | 11.8 | 5.1 |
| COc1ccc2c(CN3CCN(c4cccc(Cl)c4)CC3)cn(CCNC(C)=O)c2n1 | – | 929 | 1210 | 1.3 | – |
| COc1ccc2[nH]cc(CCNC(C)=O)c2n1 | 1.1 | 0.3 | 0.2 | 0.7 | 12 |
| CNCc1cn(CCNC(C)=O)c2nc(OC)ccc12 | – | 1090 | 8300 | 7.6 | – |

Continued by falling Ki [2], values first:

| EC50 [1] [nM] | Ki [2] [nM] | Ki [3] [nM] | Ratio Ki (Homo sapiens) | EC50 [4] [nM] | SMILES |
| --- | --- | --- | --- | --- | --- |
| – | 7440 | 9490 | 1.3 | – | COc1ccc2c(CN3CCC(C(=O)c4ccc(F)cc4)CC3)cn(CCNC(C)=O)c2n1 |
| – | 4010 | 10500 | 2.6 | – | COc1ccc2c(CN(C)Cc3ccccc3)cn(CCNC(C)=O)c2n1 |
| – | 742 | 510 | 0.7 | – | COc1ccc2c(CN3CCCCC3)cn(CCNC(C)=O)c2n1 |
| – | 550 | > 10000 | > 20 | – | COc1ccc2c(CN3CCOCC3)cn(CCNC(C)=O)c2n1 |
| 380 | 117 | – | – | – | COc1cnc2[nH]cc(CCNC(C)=O)c2c1 |
| 10 | 30 | 91 | 3 | 93 | COc1ccc2c(C(=O)C(F)(F)F)cn(CCNC(C)=O)c2n1 |
| 11 | 5 | 16 | 3.2 | 32 | COc1ccc2c(I)cn(CCNC(C)=O)c2n1 |
| 1.3 | 0.68 | 9 | 13.2 | 16 | COc1ccc2c3c(n(CCNC(C)=O)c2n1)CCCC3 |
